Among the data in ChEMBL document CHEMBL2203021, “The synthesis and biological evaluation of novel Danshensu-cysteine analog conjugates as cardiovascular-protective agents” (2012) are inhibition and Activity values, retold here.

Assay [1] has as its system HUVEC. Kind of assay: Inhibition of H2O2-induced cytotoxicity in HUVEC cells assessed as cell viability at 5 to 100 umol/L incubated 4 hrs prior to H2O2 challenge measured after 12 hrs by MTT assay. Format: functional, cell-based. Conditions: Homo sapiens.
Assay [2] concerns HUVEC. In words: Inhibition of H2O2-induced cytotoxicity in HUVEC cells assessed as LDH release at 50 umol/L incubated 4 hrs prior to H2O2 challenge measured after 12 hrs by LDH assay. The class given is functional, cell-based. Conditions: Homo sapiens. A general note: Release of lactate dehydrogenase indicates damage to the cell membrane.
For assay [3], the system named is HUVEC. In words: Antioxidant activity against H2O2-induced lipid accumulation in HUVEC cells assessed as reduction in MDA level at 50 umol/L incubated 4 hrs prior to H2O2 challenge measured after 12 hrs. The class given is functional, cell-based. Conditions: Homo sapiens.
For assay [4], the system named is HUVEC. Kind of assay: Antioxidant activity in HUVEC cells assessed as […] in H2O2-induced GSH activity at 50 umol/L incubated 4 hrs prior to H2O2 challenge measured after 12 hrs. Conditions: Homo sapiens. Format: functional, cell-based.
The subject of assay [5] is HUVEC. In words: Inhibition of H2O2-induced cytotoxicity in HUVEC cells assessed as cell viability at 5 mmol/L incubated 4 hrs prior to H2O2 challenge measured after 12 hrs by MTT assay. Conditions: Homo sapiens. The class given is functional, cell-based. A general note: Formazan colour is commonly taken as a measure of viable cells.
The subject of assay [6] is HUVEC. In words: Antioxidant activity in HUVEC cells assessed as […] in H2O2-induced GSH activity at 5 mmol/L incubated 4 hrs prior to H2O2 challenge measured after 12 hrs. Format: functional, cell-based. The conditions noted are these: Homo sapiens.
The subject of assay [7] is HUVEC. Kind of assay: Inhibition of H2O2-induced cytotoxicity in HUVEC cells assessed as LDH release at 5 mmol/L incubated 4 hrs prior to H2O2 challenge measured after 12 hrs by LDH assay. Conditions: Homo sapiens. The class given is functional, cell-based.
Assay [8] concerns HUVEC. Kind of assay: Antioxidant activity against H2O2-induced lipid accumulation in HUVEC cells assessed as reduction in MDA level at 5 mmol/L incubated 4 hrs prior to H2O2 challenge measured after 12 hrs. The class given is functional, cell-based. The conditions noted are these: Homo sapiens.
Assay [9] concerns HUVEC. Kind of assay: Antiapoptotic activity in HUVEC cells assessed as reduction in H2O2-induced PARP level by Western blotting relative to control. Format: functional, cell-based. The conditions noted are these: Homo sapiens. (In general: A western blot detects proteins with antibodies after separation by electrophoresis.)
In assay [10] the test system is HUVEC. Kind of assay: Antioxidant activity against in HUVEC cells assessed as […] in H2O2-induced GSH activity incubated 4 hrs prior to H2O2 challenge measured after 12 hrs. Format: functional, cell-based. Conditions: Homo sapiens.
In assay [11] the test system is HUVEC. In words: Inhibition of H2O2-induced cytotoxicity in HUVEC cells assessed as LDH release incubated 4 hrs prior to H2O2 challenge measured after 12 hrs by LDH assay. Format: functional, cell-based. Conditions: Homo sapiens.
The subject of assay [12] is HUVEC. In words: Antiapoptotic activity against H2O2-induced HUVEC cells assessed as increase in Bcl-2 level by Western blotting relative to control. The class given is functional, cell-based. The conditions noted are these: Homo sapiens.
Assay [13] concerns HUVEC. Kind of assay: Antiapoptotic activity against H2O2-induced HUVEC cells assessed as reduction in total apoptotic cells at 5 umol/L after 4 hrs by annexin V-FITC/propidium iodide staining-based flow cytometry. Also on record: scale not given: the % may be the effect or the level left. The class given is functional, Homo sapiens.
Assay [14] relates to HUVEC. In words: Antiapoptotic activity against H2O2-induced HUVEC cells assessed as reduction in total apoptotic cells at 100 umol/L after 4 hrs by annexin V-FITC/propidium iodide staining-based flow cytometry. The class given is functional, Homo sapiens. Also on record: scale not given: the % may be the effect or the level left.
Assay [15] has as its system HUVEC. In words: Antiapoptotic activity in HUVEC cells assessed as […] in H2O2-induced pro-caspase-9 level by Western blotting. The class given is functional, cell-based. The conditions noted are these: Homo sapiens.
In assay [16] the test system is HUVEC. In words: Antiapoptotic activity in HUVEC cells assessed as inhibition of H2O2-induced mitochondrial membrane potential reduction by JC-1 staining. The class given is functional, cell-based. Conditions: Homo sapiens.
Assay [17] has as its system HUVEC. In words: Antiapoptotic activity in HUVEC cells assessed as reduction in H2O2-induced Bax level by Western blotting relative to control. Format: functional, cell-based. Conditions: Homo sapiens.
Assay [18] concerns HUVEC. Kind of assay: Antiapoptotic activity in HUVEC cells assessed as […] in H2O2-induced pro-caspase-3 level by Western blotting. The class given is functional, cell-based. Conditions: Homo sapiens.
The subject of assay [19] is HUVEC. In words: Antiapoptotic activity in HUVEC cells assessed as reduction in H2O2-induced nuclei-shrunk by Hoechst staining. Format: functional, cell-based. Conditions: Homo sapiens.
The subject of assay [20] is HUVEC. In words: Antiapoptotic activity in HUVEC cells assessed as reduction in H2O2-induced p53 level by Western blotting relative to control. The class given is functional, cell-based. The conditions noted are these: Homo sapiens.
Assay [21] deals with HUVEC. In words: Antiapoptotic activity against H2O2-induced HUVEC cells assessed as reduction in total apoptotic cells at 50 umol/L after 4 hrs by annexin V-FITC/propidium iodide staining-based flow cytometry. The class given is functional, Homo sapiens. Also on record: scale not given: the % may be the effect or the level left.
The test system of assay [22] is HUVEC. In words: Antioxidant activity against H2O2-induced lipid accumulation in HUVEC cells assessed as reduction in MDA level incubated 4 hrs prior to H2O2 challenge measured after 12 hrs. The class given is functional, cell-based. Conditions: Homo sapiens.
The subject of assay [23] is HUVEC. Kind of assay: Antiapoptotic activity against H2O2-induced HUVEC cells assessed as reduction in late apoptotic cells after 4 hrs by annexin V-FITC/propidium iodide staining-based flow cytometry. Format: functional, cell-based. The conditions noted are these: Homo sapiens.
In assay [24] the test system is HUVEC. Kind of assay: Antiapoptotic activity in HUVEC cells assessed as reduction in H2O2-induced nuclear condensation by hoechst staining. The conditions noted are these: Homo sapiens. The class given is functional, cell-based.

Calls of active or inactive are those of the source. The calls are words filed in the database; no cut-off is given here.

Turning to `COC(=O)[C@H](CSCc1ccccc1)NC(=O)/C(=C/c1ccc2c(c1)OCO2)OC(C)=O`, the inhibition entry in the assay with HUVEC [1] was “inactive”.

`COC(=O)[C@H](CSC(=O)CCc1ccc2c(c1)OCO2)NC(=O)OC(C)(C)C`: the result in the assay on HUVEC [1] was inactive.

As for `COC(=O)[C@H](CSCc1ccccc1)NC(=O)C(Cc1ccc(OC(C)=O)c(OC(C)=O)c1)OC(C)=O` (stereo partly drawn), the inhibition entry in the assay on HUVEC [2] and in the assay on HUVEC [1] was “Active” each time. Besides, the outcome with HUVEC [3] and with HUVEC [4] was Active.

On to `COC(=O)[C@H](CSCc1ccccc1)NC(=O)CCc1ccc(OC(C)=O)c(OC(C)=O)c1`, for which the inhibition result in the assay with HUVEC [2] and in the assay on HUVEC [1] was “Active” each time. Moreover, the result in the assay with HUVEC [3] and with HUVEC [4] was Active.

For `COC(=O)[C@@H](N)CSC(=O)CCc1ccc(OC(C)=O)c(OC(C)=O)c1`, the result with HUVEC [1] was inactive.

In the case of `COC(=O)[C@H](CSC(=O)C(Cc1ccc2c(c1)OCO2)OC(C)=O)NC(=O)OC(C)(C)C` (stereo partly drawn), the inhibition entry in the assay on HUVEC [1] was “inactive”.

Regarding `COC(=O)[C@@H](N)CSC(=O)/C(=C/c1ccc2c(c1)OCO2)OC(C)=O`, the inhibition entry in the assay on HUVEC [1] was “Active”.

For the molecule `COC(=O)[C@H](CSC(=O)C(Cc1ccc(OC(C)=O)c(OC(C)=O)c1)OC(C)=O)NC(=O)OC(C)(C)C` (stereo partly drawn), in the assay with HUVEC [1], the inhibition result is “inactive”.

On to `CC(=O)N[C@@H](CS)C(=O)O`, for which the inhibition result with HUVEC [5] and in the assay on HUVEC [7] was “Active” throughout. In addition, the result in the assay on HUVEC [6] and with HUVEC [8] was Active.

As to `COC(=O)[C@H](CSC(=O)/C(=C/c1ccc2c(c1)OCO2)OC(C)=O)NC(=O)OC(C)(C)C`, the inhibition entry in the assay with HUVEC [2] and in the assay on HUVEC [1] was “Active” throughout. The outcome in the assay with HUVEC [3] and in the assay with HUVEC [4] was Active.

As to `COC(=O)[C@H](CSC(=O)/C(=C/c1ccc(OC(C)=O)c(OC(C)=O)c1)OC(C)=O)NC(=O)OC(C)(C)C`, the inhibition result in the assay with HUVEC [2] and in the assay on HUVEC [1] was “Active” in each case. Besides, the outcome with HUVEC [3] and in the assay with HUVEC [4] was Active.

As to `COC(=O)[C@@H](N)CSC(=O)C(Cc1ccc2c(c1)OCO2)OC(C)=O` (stereo partly drawn), in the assay on HUVEC [1], the inhibition result is “Active”.

Consider `COC(=O)[C@H](CSC(=O)CCc1ccc(OC(C)=O)c(OC(C)=O)c1)NC(=O)OC(C)(C)C`, for which the result in the assay with HUVEC [1] was inactive.

Consider `COC(=O)[C@H](CSCc1ccccc1)NC(=O)C(Cc1ccc2c(c1)OCO2)OC(C)=O` (stereo partly drawn), for which the inhibition entry in the assay on HUVEC [1] was “inactive”.

On to `COC(=O)[C@@H](N)CSC(=O)C(Cc1ccc(OC(C)=O)c(OC(C)=O)c1)OC(C)=O` (stereo partly drawn), for which, in the assay on HUVEC [1], the inhibition result was “inactive”.

In the case of `COC(=O)[C@H](CSCc1ccccc1)NC(=O)/C(=C/c1ccc(OC(C)=O)c(OC(C)=O)c1)OC(C)=O`, the Activity entry with HUVEC [9] was “Dose-dependent effect”; in the assay on HUVEC [10], “Dose-dependent effect”; in the assay on HUVEC [12] it was “Dose-dependent effect”; in the assay on HUVEC [13] it was 20.1%; with HUVEC [14] it was 5.4%; in the assay on HUVEC [15], “Dose-dependent effect”. The Activity entry in the assay on HUVEC [16] is “Dose-dependent effect”; in the assay on HUVEC [17], “Dose-dependent effect”; in the assay with HUVEC [18], “Dose-dependent effect”; with HUVEC [19], “Dose-dependent effect”; with HUVEC [20] it was “Dose-dependent effect”; in the assay on HUVEC [21], 9%. The Activity entry in the assay on HUVEC [22], with HUVEC [23] and with HUVEC [24] was “Dose-dependent effect” each time. The inhibition entry in the assay with HUVEC [2] and in the assay on HUVEC [1] was “Active” in each case. Moreover, the inhibition result in the assay on HUVEC [11] is “Dose-dependent effect”. The result in the assay on HUVEC [3] and in the assay with HUVEC [4] was Active.

For the molecule `COC(=O)[C@@H](N)CSC(=O)CCc1ccc2c(c1)OCO2`, the outcome in the assay on HUVEC [1] was inactive.

On to `COC(=O)[C@@H](N)CSC(=O)/C(=C/c1ccc(OC(C)=O)c(OC(C)=O)c1)OC(C)=O`, for which the inhibition result in the assay with HUVEC [1] was “Active”.

`COC(=O)[C@H](CSCc1ccccc1)NC(=O)CCc1ccc2c(c1)OCO2`: the inhibition result in the assay with HUVEC [1] is “inactive”.
